This passage reports Activity results from ChEMBL document CHEMBL1177805, “AMP-activated protein kinase (AMPK) activators from Myristica fragrans (nutmeg) and their anti-obesity effect” (Bioorg Med Chem Lett, 2010).

The source made the active and inactive calls. The calls are words filed in the database; no cut-off is given here.

The assay addresses 5'-AMP-activated protein kinase catalytic subunit alpha-2 (Mus musculus) (UniProt Q8BRK8). The assay is described as follows: Activation of AMPK in mouse […] cells at 5 uM by Western blotting. It is filed as cell-based.

Chain of 5'-AMP-activated protein kinase catalytic subunit alpha-2 (Mus musculus) (Q8BRK8 whole entry): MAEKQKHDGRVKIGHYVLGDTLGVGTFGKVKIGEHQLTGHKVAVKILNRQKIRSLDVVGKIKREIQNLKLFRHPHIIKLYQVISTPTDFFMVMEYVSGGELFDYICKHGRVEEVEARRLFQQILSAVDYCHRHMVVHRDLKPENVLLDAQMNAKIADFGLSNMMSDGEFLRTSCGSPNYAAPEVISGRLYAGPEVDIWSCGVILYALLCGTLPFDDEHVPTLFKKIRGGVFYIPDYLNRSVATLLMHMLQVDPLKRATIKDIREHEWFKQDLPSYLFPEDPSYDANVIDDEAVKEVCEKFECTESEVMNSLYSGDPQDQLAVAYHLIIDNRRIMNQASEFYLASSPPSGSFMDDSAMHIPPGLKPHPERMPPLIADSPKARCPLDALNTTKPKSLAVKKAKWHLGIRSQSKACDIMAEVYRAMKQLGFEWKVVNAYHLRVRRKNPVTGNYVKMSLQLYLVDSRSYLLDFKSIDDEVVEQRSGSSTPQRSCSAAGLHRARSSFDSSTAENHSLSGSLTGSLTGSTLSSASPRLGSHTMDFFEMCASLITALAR

As to `COc1cc([C@H]2O[C@@H](c3ccc(O)c(OC)c3)[C@@H](C)[C@H]2C)ccc1O`, the result was Active.
In the case of `COc1cc([C@H]2O[C@@H](c3ccc(O)c(OC)c3)[C@H](C)[C@@H]2C)ccc1O` it was “Active”.
